# Marks after values point to notes of the source that are not given here.
# Key:
# [1] = system: progesterone, 17-oxyprogesterone, 11-desoxycortisol and cortisol; experiment: Blood serum hormone levels (radioimmunoassay); type: in vivo, guinea pigs; conditions: intact and sensitized guinea pigs, compared with compound XLIV
# Method: Sensibilization of animals was done as described in example 27. Blood for hormonal level determination was sampled in animals before commencement of experiment and 18 hours after the last drug administration from 10 to 11 hours. […] A comparative hormonal state analysis was carried out by individual changes in each animal in a group. Mean parametric values expressed in nM/l, are presented by the groups in table 21.
# Blood serum levels of the hormones progesterone, 17-oxyprogesterone, 11-desoxycortisol and cortisol were determined by radioimmunoassay using the Beloris company kits. Hormone concentration in samples was determined by the relation graph between the activity of a precipitated bound labelled hormone and hormone concentration in the calibration samples.
# peritoneal macrophages = experiment: Activity of peritoneal macrophages (NBT reduction test); type: in vivo, mongrel white male mice
# Method: Change in the activity of peritoneal macrophages (PM) as effected by the test compounds was studied.
# Experiments were carried out on mongrel white male mice with initial body mass 20-22 g. Each group included 10 animals. Compounds III, VI, XLIV were dissolved in normal saline (NS). The test compounds were administered to animals orally for three days at doses 50 and 500 µg/kg. Animals of the control group were given equal volume of NS. Mice were sacrified 20 hours after the last compound administration, peritoneal cavity was washed with 1.5 ml Henks solution comprising 5 U/ml heparine. 0.1 ml of wash solution were incubated for 30 minutes at 37°C with 0.1 ml 0.2% nitroblue tetrasolium (NBT) solution, then smears were prepared. Nuclei were additionaly stained with o.1% neutral red solution. Results were expressed in percent of active cells [Klimov V.V., Kolovkina T.V. Nitroblue tetrasolium reduction test stimulated with pyrogenal. Laborotornoye delo (Laboratory matter) (1982), No 10, pp. 624-625]. […]
# Human lymphocytes = experiment: Concanavalin A-induced blasttransformation of lymphocytes; type: cell-based
# Method: Human lymphocytes were used for blasttransformation reaction [Kiseleva E.P., Tsveibakh A.S., Goldman E.I., Pigareva N.V. Application of a micromethod to study blasttransformation of lymphocytes in humans and animals. Immunology (1985), No 1, pp. 76-78]. 10 ml blood were collected into a sterile syringe containing heparine (to final concentration 25 U/ml) and incubated to sediment red blood cells (60-90 minutes at 37°C). Leukocytic suspension layer was selected and the number of nucleated cells was calculated. The cells obtained in such a way were incubated for 72 hours in a humid atmosphere with 5% CO2 at 37°C in the cells of plates for immune reactions in RPMI-1640 medium comprising 15% fetal calf serum, […] Neomycine (incubation mixture volume 0.15 ml). 5 x 10^5 cells were introduced into each plate cell. Incubation was carried out in the presence or absence of mitogen phytohemagglutinin (PHA) (Sigma) […] or concanavalin A (ConA) (Sigma) […] with or without addition of the test compounds at different concentrations. […] H^3 -thymidine in RPMI-1640 medium were introduced into each cell 16 hours before incubation termination. Following culturing period termination, 0.15 ml cellular suspension from each plate cell were transferred on the FN-8 paper filters. Filters were dried, washed two times with normal saline for 5 minutes then twice with TCA for 60 minutes. After drying, radioactivity of samples was calculated on a counter in the ZhS-8 scintillator. Stimulation index was calculated as ratio of sample radioactivity with mitogen to sample radioactivity without mitogen.
# hydroxyl radical = experiment: Hydroxyl radical formation in the Fenton reagent (chemiluminescence); type: biochemical
# Wistar male rats = experiment: Blood glucose level in intact rats; type: in vivo; conditions: for Blood glucose level (mg/dl) 2 hours after / Blood glucose level (mg/dl) 5 hours after: deprived of food; for Blood glucose level (mg/dl) 2 hours before: intragastral four days
# Method: Experiments were carried out on Wistar male rats weighing 250-300 g. Experimental diabetes was induced with single intravenous injection of streptozotocine (the Synthez cooperative enterprise at the IMBG of the Academy of Sciences of Ukraine) at a dose 42 mg/kg to rats which were preliminarily fasting for 24 hours with access to food immediately following injection. Rats were selected for experiment 2 weeks after diabetes induction with glycemia 120-180 mg/dl. Each group included 12 animals.
# The compounds were intragastrally administered to intact animals and to rats with streptozotocine diabetes for four days at daily doses 50 µg/kg and 500 µg/kg in water solution at a rate of 1 ml per 200 g of body mass. Intact animals were given the compounds III and XLIV, and rats with induced diabetes were given the compound XLIV. Check blood glucose level determination was done at the day of experiment, then animals were administered the test compounds and were deprived of food. The control animals received a respective water volume. Effect was estimated by change in blood glucose level in 2 and 5 hours. Then animals received forage and 24 hours after the last drug administration blood was again sampled for examination. 0.1 ml of blood were collected from the tail vein. Glucose level was determined using the o-toluidine method.
# Glucose level was calculated in mg/dl using standard glucose solutions. Then the degree of change in glucose level in relation to the initial level was determined for each animal with its expression in percent from the initial level. Final calculation was performed for each group of animals. Each group included 10 animals.
compound,measurement,setting,value
"O=C(O)CCCC(=O)NCCc1c[nH]cn1 [compound III, N-GLUTARYLHISTAMINE]",hormonal state changes,[1],the same hormonal state changes were observed
same,portion of active macrophages,"peritoneal macrophages; mice, oral three days at 50 and 500 µg/kg",pronounced in study of the both substance doses
same,"Activity of macrophages, percent","peritoneal macrophages; score 0 (no formazane inclusions, inactive PM), 50 µg/kg orally for three days",11.6 ± 2.8%
same,"Activity of macrophages, percent","peritoneal macrophages; score 0 (no formazane inclusions, inactive PM), 500 µg/kg orally for three days",12.8 ± 1.3%
same,"Activity of macrophages, percent","peritoneal macrophages; score 1 (single formazane inclusions), 50 µg/kg orally for three days",27.5 ± 2.5%
same,"Activity of macrophages, percent","peritoneal macrophages; score 1 (single formazane inclusions), 500 µg/kg orally for three days",31.3 ± 2.3%
same,"Activity of macrophages, percent","peritoneal macrophages; score 2 (inclusions fill up to 1/3 of PM cytoplasm), 50 µg/kg orally for three days",44.6 ± 1.9%
same,"Activity of macrophages, percent","peritoneal macrophages; score 2 (inclusions fill up to 1/3 of PM cytoplasm), 500 µg/kg orally for three days",46.0 ± 2.6%
same,"Activity of macrophages, percent","peritoneal macrophages; score 3 (inclusions fill up to 1/2 of PM cytoplasm), 50 µg/kg orally for three days",15.8 ± 3.3%
same,"Activity of macrophages, percent","peritoneal macrophages; score 3 (inclusions fill up to 1/2 of PM cytoplasm), 500 µg/kg orally for three days",10.9 ± 2.1%
same,blasttranformation reaction of human lymphocytes induced by ConA,Human lymphocytes,stimulating effect
same,"Radioactivity, number of pulses for 20 seconds","Human lymphocytes; 10^-3 M/l, +ConA",680 ± 82 number of pulses for 20 seconds
same,Stimulation index,"Human lymphocytes; 10^-3 M/l, +ConA",2.06
same,"Radioactivity, number of pulses for 20 seconds","Human lymphocytes; 10^-3 M/l, no mitogen",330 ± 105 number of pulses for 20 seconds
same,"Radioactivity, number of pulses for 20 seconds","Human lymphocytes; 10^-4 M/l, +ConA",1197±97 number of pulses for 20 seconds
same,Stimulation index,"Human lymphocytes; 10^-4 M/l, +ConA",4.37
same,"Radioactivity, number of pulses for 20 seconds","Human lymphocytes; 10^-4 M/l, no mitogen",274 ± 28 number of pulses for 20 seconds
same,"Radioactivity, number of pulses for 20 seconds","Human lymphocytes; 10^-5 M/l, +ConA",1562 ± 134 number of pulses for 20 seconds
same,Stimulation index,"Human lymphocytes; 10^-5 M/l, +ConA",3.34
same,"Radioactivity, number of pulses for 20 seconds","Human lymphocytes; 10^-5 M/l, no mitogen",467 ± 109 number of pulses for 20 seconds
same,"Radioactivity, number of pulses for 20 seconds","Human lymphocytes; 10^-6 M/l, +ConA",1922 ± 248 number of pulses for 20 seconds
same,Stimulation index,"Human lymphocytes; 10^-6 M/l, +ConA",4.71
same,"Radioactivity, number of pulses for 20 seconds","Human lymphocytes; 10^-6 M/l, no mitogen",408 ± 75 number of pulses for 20 seconds
same,"Radioactivity, number of pulses for 20 seconds","Human lymphocytes; 10^-7 M/l, +ConA",1483 ± 67 number of pulses for 20 seconds
same,Stimulation index,"Human lymphocytes; 10^-7 M/l, +ConA",3.10
same,"Radioactivity, number of pulses for 20 seconds","Human lymphocytes; 10^-7 M/l, no mitogen",478 ± 35 number of pulses for 20 seconds
same,"Radioactivity, number of pulses for 20 seconds","Human lymphocytes; 10^-8 M/l, +ConA",849 ± 133 number of pulses for 20 seconds
same,Stimulation index,"Human lymphocytes; 10^-8 M/l, +ConA",3.63
same,"Radioactivity, number of pulses for 20 seconds","Human lymphocytes; 10^-8 M/l, no mitogen",234 ± 36 number of pulses for 20 seconds
same,relative effect: I+/I-,hydroxyl radical; 1 µM,0.98
same,Chemiluminiscence intensity (mV) + σn-1,"hydroxyl radical; 1 µM, control of the series as in the table",1100 ± 84 mV
same,relative effect: I+/I-,hydroxyl radical; 0.01 mM,0.87
same,Chemiluminiscence intensity (mV) + σn-1,"hydroxyl radical; 0.01 mM, control of the series as in the table",972 ± 79 mV
same,relative effect: I+/I-,hydroxyl radical; 0.1 mM,0.64
same,Chemiluminiscence intensity (mV) + σn-1,"hydroxyl radical; 0.1 mM, control of the series as in the table",719 ± 71 mV
same,relative effect: I+/I-,hydroxyl radical; 1 mM,0.15
same,Chemiluminiscence intensity (mV) + σn-1,"hydroxyl radical; 1 mM, control of the series 7839 ± 171, 1120 ± 163, 4974 ± 283 or 1332 ± 172",164 ± 14 mV
same,Blood glucose level (mg/dl) 24 hours after,Wistar male rats; 50 µg/kg,66.5 ± 3.3 mg/dL
same,Blood glucose level (mg/dl) 24 hours after,Wistar male rats; 500 µg/kg,73.1 ± 3.4 mg/dL
same,Blood glucose level (mg/dl) 2 hours after,Wistar male rats; 50 µg/kg,58.5 ± 5.9 mg/dL
same,Blood glucose level (mg/dl) 5 hours after,Wistar male rats; 50 µg/kg,70.8 ± 5.5 mg/dL
same,Blood glucose level (mg/dl) 2 hours after,Wistar male rats; 500 µg/kg,69.9 ± 2.8*^2 mg/dl
same,Blood glucose level (mg/dl) 5 hours after,Wistar male rats; 500 µg/kg,72.6 ± 1.5*^2 mg/dl
same,Blood glucose level (mg/dl) 2 hours before,Wistar male rats; 50 µg/kg,84.2 ± 6.1 mg/dL
same,Blood glucose level (mg/dl) 2 hours before,Wistar male rats; 500 µg/kg,71.3 ± 4.0 mg/dL

# From EP2229935A1, “Peptide derivatives or pharmaceutically acceptable salts thereof, method for producing the same, use of said derivatives and pharmaceutical composition” (Nebolsin, Vladimir Evgenievich, priority 1997, dated 1999)
